Tests used:
[1] = molecular target: T1, recombinant human SYK360-635 (Homo sapiens, UniProt P43405); assay: Determination of IC50 of Spleen Tyrosine Kinase (SYK) inhibition, 33P ATP filtration assay; assay type: biochemical; settings: SYK aa 360-635 0.5 nM; ATP 20 μM, peptide 5 μM, 0.1% BSA; read-out: SYK_ENZYME_FILTRATION/v1, BSA
T1 construct: made in house

[2] = molecular target: T2, JAK3: Recombinant human kinase domain (Homo sapiens, UniProt P52333); assay: Determination of IC50 of Janus Kinase (JAK) inhibition, radioactive end-point 33P-ATP assay, JAK3; assay type: biochemical; settings: ATP 1.5 uM, peptide 50 uM, 20 minutes, read-out: JAK3-INHIB-DR/v1~NO ADDITIVE~Enzyme_Conc = 100
T2 construct: JAK3: Recombinant human kinase domain from Millipore (Cat #14-629) or prepared; purchased Millipore 14-629
T2 sequence (P52333 822-1111 limits assumed): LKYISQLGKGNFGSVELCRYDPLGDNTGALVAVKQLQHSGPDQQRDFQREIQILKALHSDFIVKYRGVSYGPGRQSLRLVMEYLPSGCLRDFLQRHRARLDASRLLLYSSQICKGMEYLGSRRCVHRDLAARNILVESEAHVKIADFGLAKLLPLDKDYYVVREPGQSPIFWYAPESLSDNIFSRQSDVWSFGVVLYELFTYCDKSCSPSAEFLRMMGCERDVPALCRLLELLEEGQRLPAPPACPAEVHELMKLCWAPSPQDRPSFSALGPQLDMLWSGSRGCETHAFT

Compound	IC50 [1] [nM]	IC50 [2] [nM]
Cn1nc(-c2cnc3[nH]cc(C(=O)NC4CCCC(N)C4)c3n2)c2ccc(Cl)cc21 (stereo not drawn) [Example I-169, 2-(6-Chloro-1-methyl-1H-indazol-3-yl)-5H-pyrrolo[2,3-b]pyrazine-7-carboxylic acid (3-amino-cyclohexyl)-amide]	12	391
Cn1nc(-c2cnc3[nH]cc(C(=O)N[C@H]4CCCOC4)c3n2)c2ccc(Cl)cc21 [Example I-138, 2-(6-Chloro-1-methyl-1H-indazol-3-yl)-5H-pyrrolo[2,3-b]pyrazine-7-carboxylic acid (S)-tetrahydro-pyran-3-ylamide]	21.9	31.4
CC(C)NC(=O)c1c[nH]c2ncc(-c3nn(C)c4ccc(OC(F)(F)F)cc34)nc12 [Example I-281, 2-(1-Methyl-5-trifluoromethoxy-1H-indazol-3-yl)-5H-pyrrolo[2,3-b]pyrazine-7-carboxylic acid isopropylamide]	12.5	60.9
Cn1nc(-c2cnc3[nH]cc(C(=O)N[C@@H]4CCC[C@H](C#N)C4)c3n2)c2ccc(Cl)cc21 (relative stereo) [Example I-167, 2-(6-Chloro-1-methyl-1H-indazol-3-yl)-5H-pyrrolo[2,3-b]pyrazine-7-carboxylic acid (cis-3-cyano-cyclohexyl)-amide]	75	197
CC(NC(=O)c1c[nH]c2ncc(-c3nn(C)c4cc(Cl)ccc34)nc12)c1ncco1 (stereo not drawn) [Example I-48, 2-(6-Chloro-1-methyl-1H-indazol-3-yl)-5H-pyrrolo[2,3-b]pyrazine-7-carboxylic acid (1-oxazol-2-yl-ethyl)-amide]	22.1	4.91
CC(NC(=O)c1c[nH]c2ncc(-c3nn(C)c4cc(Cl)ccc34)nc12)c1cccnc1 (stereo not drawn) [Example I-247, 2-(6-Chloro-1-methyl-1H-indazol-3-yl)-5H-pyrrolo[2,3-b]pyrazine-7-carboxylic acid (1-pyridin-3-yl-ethyl)-amide]	69.2	66.7
C[C@H](NC(=O)c1c[nH]c2ncc(-c3nn(C)c4cc(Cl)ccc34)nc12)C1CC1 [Example I-140, 2-(6-Chloro-1-methyl-1H-indazol-3-yl)-5H-pyrrolo[2,3-b]pyrazine-7-carboxylic acid ((S)-1-cyclopropyl-ethyl)-amide]	9.15	1.11
COc1ccc2c(-c3cnc4[nH]cc(C(=O)NC(C)(C)CO)c4n3)nn(C)c2c1 [Example I-365, 2-(6-Methoxy-1-methyl-1H-indazol-3-yl)-5H-pyrrolo[2,3-b]pyrazine-7-carboxylic acid (2-hydroxy-1,1-dimethyl-ethyl)-amide]	3.32	58.3
CC(C)NC(=O)c1c[nH]c2ncc(-c3nn(C)c4ccc(OC(F)F)cc34)nc12 [Example I-283, 2-(5-Difluoromethoxy-1-methyl-1H-indazol-3-yl)-5H-pyrrolo[2,3-b]pyrazine-7-carboxylic acid isopropylamide]	4.5	14.3
COC[C@H](C)NC(=O)c1c[nH]c2ncc(-c3nn(Cc4cccnc4)c4cc(F)ccc34)nc12 [Example I-241, 2-(6-Fluoro-1-pyridin-3-ylmethyl-1H-indazol-3-yl)-5H-pyrrolo[2,3-b]pyrazine-7-carboxylic acid ((S)-2-methoxy-1-methyl-ethyl)-amide]	20.3	0.41
Cn1nc(-c2cnc3[nH]cc(C(=O)NCC(C)(C)C)c3n2)c2ccc(F)cc21 [Example I-115, 2-(6-Fluoro-1-methyl-1H-indazol-3-yl)-5H-pyrrolo[2,3-b]pyrazine-7-carboxylic acid (2,2-dimethyl-propyl)-amide]	19.3	8.23
COC[C@H](C)NC(=O)c1c[nH]c2ncc(-c3ncn4cc(F)cc(F)c34)nc12 [Example I-40, 2-(6,8-Difluoro-imidazo[1,5-a]pyridin-1-yl)-5H-pyrrolo[2,3-b]pyradine-7-carboxylic acid ((S)-2-methoxy-1-methyl-ethyl)-amide]	994	10.2
